pKd: −log10 of the molar value. Values joined by “and” are separate entries in the source; they are usually repeats but may differ in a detail not shown here. Equal values may be shown once. “Also recorded” adds a separate entry of the source.
How the values were obtained:
[1] = target: T1, hOR17-4 (Homo sapiens, UniProt P34982, R25Q); experiment: Intracellular calcium-ion mobility assay in induced HEK293S cells; type: cell-based; design: of which 969 by code for the 323 amino acid hOR17-4-GlyGly-rho1D4 protein; made in house; conditions: for cytosolic Ca2+ response to odorant: Fura-Red
T1 sequence (P34982 with tags, fused parts or gaps R25Q): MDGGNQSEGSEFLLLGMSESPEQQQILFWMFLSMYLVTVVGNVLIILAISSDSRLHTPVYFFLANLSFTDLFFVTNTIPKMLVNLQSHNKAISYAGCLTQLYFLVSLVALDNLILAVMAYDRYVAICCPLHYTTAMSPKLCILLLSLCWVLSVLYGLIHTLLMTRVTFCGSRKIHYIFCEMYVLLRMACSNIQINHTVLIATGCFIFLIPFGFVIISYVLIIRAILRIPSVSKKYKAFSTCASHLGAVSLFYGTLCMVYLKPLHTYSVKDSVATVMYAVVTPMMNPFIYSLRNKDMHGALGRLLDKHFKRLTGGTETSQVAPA
Procedure: To determine if receptors expressed at the surface of induced HEK293S rho5 cells was functional, we performed calcium-influx assays. In our heterologous HEK293S system, olfactory receptors can signal through the inositol triphosphate (IP3) pathway to release intracellular Ca2+, using the “promiscuous” G-protein Gαq.
HEK293S rho5 cells were seeded and grown on glass coverslips until they reached 80-90% confluency. Expression of hOR17-4 was then induced with media containing tetracycline (1 μg/ml) for 48 hours. Cells were then washed with PBS and loaded with the calcium sensitive dye Fluo-3 (Invitrogen) according to the manufacturers instructions. Coverslips were then mounted and visualized using time-lapse confocal microscopy. Experiments were conducted in PBS and odorant stocks were added by hand using a pipettor to final concentrations between 1-100 μM. Both specific and non-specific odorants were tested. As an additional control to test whether cells could increase internal calcium levels, 1 mM ATP was added.
The functional activity and specificity of hOR17-4 was probed in heterologous HEK293S cells by monitoring intracellular calcium-ion concentrations using time-lapse confocal microscopy (19). In our HEK293S cells, olfactory receptors can signal through the inositol triphosphate (IP3) pathway to release intracellular Ca^2+ from the ER, mediated by the “promiscuous” G-protein Gαq. Induced cells responded to the specific odorant bourgeonal at concentrations as low as 1 μM (FIG. 28). […] Importantly, nearly 100% of the cells were responsive to bourgeonal due to the stable-inducible nature of this system, a vast improvement over expression methods that relied on transient transfection with less than 5% of cells being responsive (3).
hOR17-4 expression in the stable HEK293S cell line was induced by 48-hour incubation in DMEM/F12 medium with GlutaMAX, supplemented with 1 μg/ml tetracycline. Then cells were loaded at 37° C. for 30 min with […] Fura-Red-AM (Molecular Probes) in serum-free DMEM/F12 medium and were subsequently washed with PBS and incubated in DMEM/F12 medium containing 10% FCS for 30 min to allow complete hydrolysis of intracellular Fura-Red-AM. Cytosolic Ca^2+ responses were recorded by confocal fluorescence microscopy (Zeiss LSM 510) using a water immersion objective (Zeiss Achroplan 63×, NA 1.2). Excitation was at 488 nm (Ar^+ laser); the 650 nm long pass emission filter was used to image Fura-Red at a rate of 1 image per second. Stock solutions of the tested odorants were prepared freshly in DMSO and diluted 1000-fold into PBS to give the desired concentrations.

[2] = target: T1, hOR17-4; experiment: Surface plasmon resonance (Biacore A100) odorant binding assay, detergent-solubilized receptor from HEK293S cells; design: of which 969 by code for the 323 amino acid hOR17-4-GlyGly-rho1D4 protein; made in house; lysate supernatant captured on the chip; conditions: not rigorously determined due to low odorant solubility above 40 μM
Excerpt: First, the rho1D4 mAb was covalently attached to the dextran surface of a Biacore CM4 chip using standard amine-coupling chemistry. The hOR17-4 receptor protein was then non-covalently captured on the antibody via its C-terminal rho tag (TETSQVAPA (SEQ ID NO: 50)). Odorant ligands were then applied and odorant binding detected in real time via the mass-based refractive index change. […] Low affinity Biacore data is typically characterized by fast on- and off-rates, where curvature in the association and dissociation phase may not be observable. […] However, the sensorgram data shown reinforces the prediction of low, micromolar affinities for the two odorants.
All odorant binding experiments were performed at 25° C. on a Biacore™ A100 (GE Healthcare), which has a parallel flow configuration, allowing assay development (e.g., solubilization conditions) to be tested and optimized in parallel and multiplexed format. The sensor chip CM4, amine-coupling kit, HBS (10 mM Hepes, 0.15 M NaCl, pH 7.4) and PBS were from GE Healthcare. The detailed protocol (see Supporting Information) was adapted, with several key modifications, from that previously reported by Kaiser et al. (25). […]

[3] = target: T2, hOR17-4 (Homo sapiens, UniProt P34982); experiment: Surface plasmon resonance (Biacore T100) odorant binding assay, cell-free produced receptor
T2 construct: made in house; host or cells: wheat germ cell-free extract (Roche RTS Wheat Germ CECF kit)
T2 sequence (P34982 1-312): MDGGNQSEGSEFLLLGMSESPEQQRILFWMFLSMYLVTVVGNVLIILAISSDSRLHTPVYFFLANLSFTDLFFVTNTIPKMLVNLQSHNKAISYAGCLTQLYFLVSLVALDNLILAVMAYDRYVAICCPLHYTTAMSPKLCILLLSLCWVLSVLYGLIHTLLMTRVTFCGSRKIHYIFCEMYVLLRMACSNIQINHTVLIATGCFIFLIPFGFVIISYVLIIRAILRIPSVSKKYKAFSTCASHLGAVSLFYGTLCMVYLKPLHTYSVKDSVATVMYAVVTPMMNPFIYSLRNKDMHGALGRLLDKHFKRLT
Procedure: All odorant binding experiments were performed on a Biacore™ T100 (GE Healthcare, Uppsala, Sweden) at 25° C. The sensor chip CM4, amine coupling kit, HBS (10 mM Hepes, 0.15 M NaCl, pH 7.4) and PBS were from (GE Healthcare, Uppsala, Sweden).
A anti His-tag antibody (R&D Systems, Minneapolis, Minn., USA) at 5 μg/ml in 10 mM sodium acetate pH 4.75 was immobilized onto a series S sensor chip using standard amine-coupling chemistry in HBS running buffer at 10 μl/min (33). The amount of coupled antibody was about 13000 RU. Control surfaces were prepared similarly without protein derivatization and utilized as a reference surfaces for compound binding experiments. Cell-free lysate containing the expressed olfactory receptor was centrifuged for […] at 14000×g at 4° C., to remove larger particles. The supernatant, containing about 0.6 mg/ml olfactory receptor, was immediately captured on the surface plasmon resonance (SPR) chip using PBS and 3% (v/v) DMSO as running buffer at 10 μl/min. […] A 30 sec pulse of coupling reagents was injected to achieve the stable baseline needed for the kinetic assay.
Fresh odorant undecanal solutions were made as follows. Pure odorant was diluted in DMSO to 0.5 M. This solution was diluted 33.3 times in PBS to obtain a […] odorant solution in running buffer with 3% (v/v) DMSO. […]

[4] = tetracycline-induced HEK293S cells

| Compound | cytosolic Ca2+ response to odorant [1, 4] | equilibrium dissociation constant [2] | also measured |
| --- | --- | --- | --- |
| C/C=C/c1ccc(OC)cc1 [anithole] | No response |  |  |
| CC(C)(C)c1ccc(CCC=O)cc1 [bourgeonal] | transient Ca^2+ signaling |  | cells responsive to odorant ([1]; stable-inducible HEK293S cells): ~100%; lowest odorant concentration giving a Ca2+ response ([1]; tetracycline-induced HEK293S cells, confocal microscopy): ≤ 1 µM |
| CCc1ccc(CC(C)(C)C=O)cc1 [floralozone] |  | low micromolar range |  |
| CC(C=O)Cc1ccc(C(C)(C)C)cc1 (stereo not shown) [lilial] |  | low micromolar range |  |
| CCCCCCCC=O [octanal] | No response |  |  |
| CCCCCCCCCCC=O [undecanal] |  |  | pKd ([3]; equilibrium binding responses vs concentration fitted to a simple binding isotherm, 25° C., 3% DMSO, read-out: affinity constant, KD): 4.66 and ~4.66; dose response binding (RU) ([3]; injections at 1.2, 3.7, 11, 33 and 100 uM): binding response increases by increasing odorant concentration; inhibition of bourgeonal-induced hOR17-4 activation ([1]; preincubation and co-application of 100 μM with bourgeonal 100 μM): Odorant response could be blocked; also recorded: inhibited hOR17-4 activation by bourgeonal |
